Series [1] has as its system NCI-H716 cells. As to the kind of experiment: CellTiter-Glo cell proliferation inhibition, NCI-H716. The series is classed as cell-based. Conditions: Homo sapiens, 72 h, read-out: NCI-H716 cell proliferation inhibition rate IC50. Put shortly:
(§1)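 Cells plated, compound added next day as 9-point 3-fold series from 1000 nM to 0.15 nM, incubated 72 h. Viability by CellTiter-Glo luminescence; IC50 from four-parameter variable-slope fit of percent inhibition.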
In general terms: Cellular ATP, detected with luciferase, serves as a proxy for viable cell number.

In series [2] the target is FGFR2 V564F (Homo sapiens (Human), UniProt P21802, V564F). As to the kind of experiment: TR-FRET kinase inhibition assay, FGFR2 V564F. The format is biochemical. Conditions: ATP Km concentration (20 μM). In short, it runs like this:
(§2)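 Kinase-domain fragments in 50 mM HEPES pH 7.5 with 10 mM MgCl2, ATP at Km plus peptide substrate; 60 min reaction at room temperature, then EDTA/Eu-anti-phosphotyrosine (PT66) detection for 60 min (30 min for V564F). 11-point 3-fold dilutions from 1000 nM; IC50 from four-parameter fit of 665/620 nm ratio inhibition.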

Series [3] has as its target FGFR2 (Homo sapiens (Human), UniProt P21802). Nature of the series: TR-FRET kinase inhibition assay, FGFR2. The format is biochemical. Conditions: ATP Km concentration (30 μM). In short, it runs like this: as §2
For orientation: TR-FRET usually uses a lanthanide donor and a delayed reading to cut background.

The target in series [4] is FGFR1 (Homo sapiens (Human), UniProt P11362). As to the kind of experiment: TR-FRET kinase inhibition assay, FGFR1. The series is classed as biochemical. Conditions: ATP Km concentration (30 μM). Put shortly:
as §2

Series [5] has as its target FGFR3 (Homo sapiens (Human), UniProt P22607). As to the kind of experiment: TR-FRET kinase inhibition assay, FGFR3. The series is classed as biochemical. The following applies: ATP Km concentration (30 μM). As for the experimental part: To measure the IC50 values of the compounds against FGFR1, FGFR2, FGFR3, FGFR4, and FGFR2 V564F at ATP Km concentrations by TR-FRET method.
TR-FRET (time-resolved fluorescence resonance energy transfer) method was used to detect the inhibitory activity of the compounds on FGFR1, FGFR2, FGFR3, FGFR4, and FGFR2 V564F kinase region fragments. The highest detection concentration of the compounds in 5 kinase experiments was 1000 nM, which was diluted in 3 folds, with a total of 11 concentrations (1000 nM to 0.017 nM). A kinase buffer (50 mM HEPES pH 7.5, 1 mM EGTA, 10 mM MgCl2, 2 mM DTT, and 0.01% Tween-20) was used to prepare 4× enzyme solution, 4× compound solutions diluted in gradient, and a 2×ATP/Peptide substrate solution. To a 384-well plate, 2.5 μL of enzyme solution and 2.5 μL of diluted […] compound solution were added, and 5 μL of 2×ATP/Peptide substrate solution was then added. After reacting at room temperature for 60 minutes for FGFR1, FGFR2, FGFR3, and FGFR2 V564F kinases, and 120 minutes for FGFR4 kinase, 10 μL of a 2× termination and detection mixed liquid prepared with 1×LANCE detection buffer with an EDTA concentration of 20 mM and a Europium-anti-phosphotyrosine (PT66) concentration of 2 nM was added to each well of the plate. After reacting at room temperature for 60 minutes for FGFR1, FGFR2, FGFR3, and FGFR4, and 30 minutes for FGFR2 V564F, the fluorescence signal value in each well of the plate was measured by a microplate reader.
1) Inhibition rate (%): Calculation was performed on the raw data (665 nm/620 nm reading ratio) according to the following formula to obtain the inhibition rate. Inhibition rate %=[(mean value in positive control well−value in sample well)/(mean value in positive control well−mean value in negative control well)]×100, wherein the positive control well was a reaction well without a compound […], and the negative control well was a reaction wells without an enzyme.
2) Curve fitting: Log(inhibitor) vs. response—Variable slope (four parameters) in GraphPad Prism 6 was used for fitting equation analysis of the compound concentration and the corresponding inhibition rate, and the curve was fitted to obtain the IC50 values of the compounds.

Series [6] can be described thus: Pharmacokinetic experiment in SD rats after oral administration. The series is classed as in vivo. The following applies: 5 mg/kg, plasma; for AUC(0-t) / AUC(0-inf) / half-life / MRT / Cmax: male, Sprague-Dawley (SD), rat, po; for AUC(0-t): read-out: Area under the curve AUC0-t; for AUC(0-inf): read-out: Area under the curve AUC0-∞; for half-life: read-out: Half-life t1/2 (converted); for MRT: read-out: Mean residence time MRT; for Cmax: read-out: Plasma concentration Cmax; for Time to peak tmax: p.o.

Series [7] concerns BaF3 FGFR2-BICC1 V564F cells. Nature of the series: CellTiter-Glo cell proliferation inhibition, BaF3 FGFR2-BICC1 V564F. The following applies: Mus musculus, 72 h, read-out: BaF3 FGFR2-BICC1 V564F inhibitory activity IC50. The series is classed as cell-based. In short, it runs like this:
as §1

In general, MRT refers to a mean duration of stay, worked out from the concentration-time curve.

Molecules are shown by their SMILES.

Chain of FGFR3 (P22607 472-761): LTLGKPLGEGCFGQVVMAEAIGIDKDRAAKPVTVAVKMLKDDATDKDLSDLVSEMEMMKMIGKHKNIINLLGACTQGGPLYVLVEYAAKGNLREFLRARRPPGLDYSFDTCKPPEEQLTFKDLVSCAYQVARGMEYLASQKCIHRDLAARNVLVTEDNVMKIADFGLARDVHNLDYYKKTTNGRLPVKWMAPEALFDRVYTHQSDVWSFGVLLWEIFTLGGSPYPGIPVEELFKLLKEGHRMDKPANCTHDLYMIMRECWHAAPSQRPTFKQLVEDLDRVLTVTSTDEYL
Chain of FGFR2 V564F (P21802 481-770 V564F): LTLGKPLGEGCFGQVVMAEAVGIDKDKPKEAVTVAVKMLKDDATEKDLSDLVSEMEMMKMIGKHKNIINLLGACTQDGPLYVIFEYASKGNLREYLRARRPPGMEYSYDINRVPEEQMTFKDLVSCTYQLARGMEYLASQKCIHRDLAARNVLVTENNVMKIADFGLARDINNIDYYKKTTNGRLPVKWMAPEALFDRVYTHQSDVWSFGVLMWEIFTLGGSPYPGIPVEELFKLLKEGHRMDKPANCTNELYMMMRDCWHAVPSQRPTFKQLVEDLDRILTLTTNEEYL
Chain of FGFR1 (P11362 478-767): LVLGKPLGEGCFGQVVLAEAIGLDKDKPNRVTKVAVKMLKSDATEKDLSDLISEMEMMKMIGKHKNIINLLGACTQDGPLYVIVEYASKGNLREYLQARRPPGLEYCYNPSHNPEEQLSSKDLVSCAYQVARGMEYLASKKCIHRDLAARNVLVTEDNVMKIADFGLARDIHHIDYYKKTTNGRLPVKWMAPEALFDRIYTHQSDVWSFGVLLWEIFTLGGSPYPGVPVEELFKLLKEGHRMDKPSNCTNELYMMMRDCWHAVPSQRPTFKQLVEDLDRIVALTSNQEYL
Chain of FGFR2 (P21802 481-770): as the sequence (P21802 481-770 V564F) above, with F84V counted along it

In the case of `C=CC(=O)N1CC[C@H](n2nc(C#Cc3ccc4cn(C)nc4c3)c3c(N)ncc(C(C)=O)c32)C1` [Example 82, (S)-1-(3-(7-acetyl-4-amino-3-((2-methyl-2H-indazol-6-yl)alkynyl)-1H-pyrazolo[4,3-c]pyridin-1-yl)pyrrolidine-1-methyl)prop-2-en-1-one], in series [1], the IC50 was found to be 0.21 nM. In series [2], this compound showed an IC50 of 0.3 nM. Besides, the IC50 in series [3] worked out at 0.3 nM. This compound had an IC50 in series [4] of 1.4 nM. Further, in series [5], the IC50 came out at 0.5 nM. In addition, in series [6], the AUC(0-t) came to 2800 ng·h/mL, the AUC(0-inf) was determined as 2910 ng·h/mL, the half-life is 1.4 h and the MRT stood at 3.05 h. For the same compound, in series [6], the Cmax stood at 677 ng/mL and the Time to peak tmax was found to be 1 h. Further, the IC50 in series [7] came out at 0.5 nM.

Take `C=CC(=O)N1CC[C@H](n2nc(C#Cc3ccc4ccnn4c3)c3c(N)ncc(C(=O)CC)c32)C1` [Example 72, (S)-1-(3-(4-amino-7-propionyl-3-(pyrazolo[1,5-a]pyridine-6-ethynylene)-1H-pyrazolo[4,3-c]pyridin-1-yl)pyrrolidine-1-methyl)prop-2-en-1-one]: the IC50 in series [1] was determined as 1.97 nM; in series [2], 2.1 nM; in series [3] it was 1.4 nM; in series [4] it was 7.3 nM; in series [5], 1.6 nM; in series [7], 1.5 nM. In series [6], the AUC(0-t) is 1150 ng·h/mL. For the same compound, the AUC(0-inf) in series [6] amounted to 1150 ng·h/mL. Moreover, in series [6], the half-life is 0.6 h. Also, in series [6], the MRT was determined as 2.26 h. Moreover, the Cmax in series [6] is 298 ng/mL. Also, the Time to peak tmax in series [6] amounted to 0.5 h.

(Values after patent US20250152564A1, “PROPYLENE KETONE-CONTAINING BIOINHIBITOR, PREPARATION METHOD THEREFOR, AND USE THEREOF” (SHANGHAI HANSOH BIOMEDICAL CO., LTD., priority 2022, published 2025).)
